IC50 data for 25 molecules are collected here from patent publication US20060223996A1, “IL-12 modulatory compounds” (Synta Pharmaceuticals Corp., priority 2004, published 2006).

In general, IC50 refers to the concentration needed to halve the response being measured.

In this experiment the test system is IL-12. The experiment in a line: Human in vitro assay: inhibition of IL-12 production in IFNγ/LPS- or IFNγ/SAC-stimulated human PBMC or THP-1 cells (ELISA). Format: cell-based. To be noted: read-out: IC50 Range (representative in vitro IC50 data). The method, boiled down:
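PBMC (5×10^5 cells/well) primed with IFNγ 30 U/mL for 22 h then LPS 1 μg/mL, or IFNγ 100 U/mL then SAC 0.01%; THP-1 primed with IFNγ 100 U/mL for 22 h then SAC 0.025%, with compound in 0.25% DMSO. Supernatant IL-12 p70/p40 measured by sandwich ELISA after 18 h; IC50 derived; viability by MTS.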
In general terms: ELISA stands for enzyme-linked immunosorbent assay.

Bounds are passed on as bounds.

As for `Cc1cccc(NC(=O)c2cc(OCCc3ccccn3)nc(N3CCOCC3)n2)n1` [Compound 34, 2-Morpholin-4-yl-6-(2-pyridin-2-yl-ethoxy)-pyrimidine-4-carboxylic acid (6-methyl-pyridin-2-yl)-amide], the IC50 was at least 1000 nM. Under `Cc1cccc(NC(=O)c2cc(N(C)CCO)nc(N3CCOCC3)n2)c1` [Compound 298, 6-[(2-Hydroxy-ethyl)-methyl-amino]-2-morpholin-4-yl-pyrimidine-4-carboxylic acid m-tolylamide] stands under 1000 nM; under `O=C(Nc1cc(OCCN2CCOCC2)nc(N2CCOCC2)n1)Nc1ccccc1Cl` [Compound 132, 1-(2-Chloro-phenyl)-3-[2-morpholin-4-yl-6-(2-morpholin-4-yl-ethoxy)-pyrimidin-4-yl]-urea], under 1000 nM; under `Cc1c(C)n(C)c2ccc(NC(=O)c3cc(OCCN4CCOCC4)cc(N4CCOCC4)n3)cc12` [Compound 146, 6-Morpholin-4-yl-4-(2-morpholin-4-yl-ethoxy)-pyridine-2-carboxylic acid (1,2,3-trimethyl-1H-indol-5-yl)-amide], under 1000 nM. For the molecule `CCOc1cc(N2CCOCC2)c(OCC)cc1NC(=O)c1cc(N(C)CCOC)nc(N2CCOCC2)n1` [Compound 204, N-(2,5-diethoxy-4-morpholinophenyl)-6-((2-methoxyethyl)(methyl)amino)-2-morpholinopyrimidine-4-carboxamide], the IC50 was at least 1000 nM. As for `CC(=O)c1cccc(NC(=O)c2cc(OCCN3CCOCC3)nc(N3CCOCC3)n2)c1` [Compound 152, 2-Morpholin-4-yl-6-(2-morpholin-4-yl-ethoxy)-pyrimidine-4-carboxylic acid (3-acetyl-phenyl)-amide], the IC50 is at least 1000 nM. For `COCCN(C)c1cc(N2CCOCC2)cc(C(=O)Nc2cccc(N(C)C)c2)n1` [Compound 157, 6-[(2-Methoxy-ethyl)-methyl-amino]-4-morpholin-4-yl-pyridine-2-carboxylic acid (3-dimethylamino-phenyl)-amide], the half-inhibitory concentration (IC50) was at least 1000 nM. On to `O=C(Nc1ccc(C(F)(F)F)cc1)c1cc(NCCN2CCOCC2)nc(N2CCOCC2)n1` [Compound 191, 2-morpholino-6-(2-morpholinoethylamino)-N-(4-(trifluoromethyl)phenyl)pyrimidine-4-carboxamide], for which the IC50 is at least 1000 nM. On to `Cc1cc(C(=O)Nc2nc(OCCc3ccccn3)cc(N3CCOCC3)n2)no1` [Compound 77, 5-Methyl-isoxazole-3-carboxylic acid-[4-morpholin-4-yl-6-(2-pyridin-2-yl-ethoxy)-pyrimidin-2-yl]-amide], for which the IC50 was at least 1000 nM. Take `O=C(Nc1ccc2ncsc2c1)c1cc(OCCc2ccccn2)nc(N2CCOCC2)n1` [Compound 36, 2-Morpholin-4-yl-6-(2-pyridin-2-yl-ethoxy)-pyrimidine-4-carboxylic acid benzothiazol-6-ylamide]: the IC50 is at least 1000 nM.

Consider `Cc1[nH]c2ccc(NC(=O)c3cc(OCC(=O)OC(C)(C)C)nc(N4CCOCC4)n3)cc2c1C` [Compound 316, [6-(2,3-Dimethyl-1H-indol-5-ylcarbamoyl)-2-morpholin-4-yl-pyrimidin-4-yloxy]-acetic acid tert-butyl ester], for which the IC50 was under 1000 nM. Turning to `CCc1c(C)[nH]c2ccc(NC(=O)Nc3cc(C)nc(N4CCOCC4)n3)cc12` [Compound 267, 1-(3-ethyl-2-methyl-1H-indol-5-yl)-3-(6-methyl-2-morpholinopyrimidin-4-yl)urea], the 50% inhibitory concentration (IC50) is under 1000 nM. In the case of `Cc1cccc(NC(=O)Nc2cc(N3CCOCC3)nc(OCCc3ccccn3)n2)c1` [Compound 68, 1-[6-Morpholin-4-yl-2-(2-pyridin-2-yl-ethoxy)-pyrimidin-4-yl]-3-m-tolyl-urea], the IC50 was at least 1000 nM. On to `CN(CCO)c1cc(C(=O)Nc2cccc(N3CCCC3)c2)nc(N2CCOCC2)n1` [Compound 310, 6-[(2-Hydroxy-ethyl)-methyl-amino]-2-morpholin-4-yl-pyrimidine-4-carboxylic acid (3-pyrrolidin-1-yl-phenyl)-amide], for which the 50% inhibitory concentration (IC50) was under 1000 nM.

Turning to `CN(C)c1cccc(NC(=O)c2cc(OCCN3CCOCC3)nc(N3CCOCC3)n2)c1` [Compound 26, 2-Morpholin-4-yl-6-(2-morpholin-4-yl-ethoxy)-pyrimidine-4-carboxylic acid (3-dimethylamino-phenyl)-amide], the IC50 is under 1000 nM. On to `COCCN(C)c1cc(C(=O)Nc2ccc3nc(C)ccc3c2)nc(N2CCOCC2)n1` [Compound 202, 6-((2-methoxyethyl)(methyl)amino)-N-(2-methylquinolin-6-yl)-2-morpholinopyrimidine-4-carboxamide], for which the IC50 is at least 1000 nM.

With `Cc1ccc2nc(NC(=O)c3cc(OCCc4ccccn4)nc(N4CCOCC4)n3)sc2c1` [Compound 32, 2-Morpholin-4-yl-6-(2-pyridin-2-yl-ethoxy)-pyrimidine-4-carboxylic acid (6-methyl-benzothiazol-2-yl)-amide], the concentration for half-maximal inhibition (IC50) was at least 1000 nM. `Cc1[nH]c2ccc(NC(=O)c3cc(NCC(=O)N4CCCC4)nc(N4CCOCC4)n3)cc2c1C` [Compound 108, 2-Morpholin-4-yl-6-(2-oxo-2-pyrrolidin-1-yl-ethylamino)-pyrimidine-4-carboxylic acid (2,3-dimethyl-1H-indol-5-yl)-amide]: the half-inhibitory concentration (IC50) was under 1000 nM. Under `CNc1cc(C(=O)Nc2ccc3[nH]c(C)c(C)c3c2)nc(N2CCOCC2)n1` [Compound 247, N-(2,3-dimethyl-1H-indol-5-yl)-6-(methylamino)-2-morpholino-pyrimidine-4-carboxamide] stands under 1000 nM; under `CN1CCCc2ccc(NC(=O)c3cc(OCCN4CCOCC4)nc(N4CCOCC4)n3)cc21` [Compound 317, 2-Morpholin-4-yl-6-(2-morpholin-4-yl-ethoxy)-pyrimidine-4-carboxylic acid (1-methyl-1,2,3,4-tetrahydro-quinolin-7-yl)-amide], under 1000 nM. As for `O=C(Nc1nnc(N2CCOCC2)[nH]1)c1cc(OCCN2CCOCC2)nc(N2CCOCC2)n1` [Compound 293, 2-Morpholin-4-yl-6-(2-morpholin-4-yl-ethoxy)-pyrimidine-4-carboxylic acid (5-morpholin-4-yl-4H-[1,2,4]triazol-3-yl)-amide], the 50% inhibitory concentration (IC50) is at least 1000 nM. For `C/C(=N\N(C)C)c1cccc(NC(=O)c2cc(OCCN3CCOCC3)nc(N3CCOCC3)n2)c1` [Compound 153, (E)-N-(3-(1-(2,2-dimethylhydrazono)ethyl)phenyl)-2-morpholino-6-(2-morpholinoethoxy)pyrimidine-4-carboxamide], the IC50 is under 1000 nM. For `Cc1cccc(NC(=O)Nc2cc(OCCc3ccccn3)nc(N3CCOCC3)n2)c1` [Compound 67, 1-[2-Morpholin-4-yl-6-(2-pyridin-2-yl-ethoxy)-pyrimidin-4-yl]-3-m-tolyl-urea], the 50% inhibitory concentration (IC50) was under 1000 nM. For the molecule `COCCN(C)c1cc(C(=O)Nc2cc(C)cc(C)n2)nc(N2CCOCC2)n1` [Compound 238, 6-[(2-Methoxy-ethyl)-methyl-amino]-2-morpholin-4-yl-pyrimidine-4-carboxylic acid (4,6-dimethyl-pyridin-2-yl)-amide], the half-inhibitory concentration (IC50) was at least 1000 nM. `O=C(Nc1ccc2c(c1)OCO2)Nc1cc(N2CCOCC2)nc(OCCN2CCOCC2)n1` [Compound 123, 1-Benzo[1,3]dioxol-5-yl-3-[6-morpholin-4-yl-2-(2-morpholin-4-yl-ethoxy)-pyrimidin-4-yl]-urea]: the IC50 is at least 1000 nM.
